Legend:
IP-10 = test: Cytokine production induced by sample formulations: IP-10; type: in vivo; settings: mice, i.v., 0.5 mpk, 6 hours; for IP-10: Table 20-4, formula (20-I), in pg/mL (unit assumed)
Outline: (§1)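 Cytokine levels were quantified at 6 hours in mice given the nanoparticle compositions i.v. at 0.5 mpk. MC3 standard formulation and PBS served as comparators.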

[1] = system: modified luciferase (Luc) expression; test: Expression upon intramuscular administration of Luc mRNA and H10 mRNA formulations; type: in vivo; settings: 6 hours after intramuscular administration
Experimental: Sample formulations including both modified luciferase (Luc) mRNA and H10 mRNA were prepared and administered intramuscularly at day 1 and day 21 and the resulting expression and immunogenicity were evaluated simultaneously. Formulations including compounds according to formula (20-I) were prepared and administered at doses of 0.001 and 0.01 mpk (e.g., doses of 0.0005 mpk of a formulation including Luc mRNA and a formulation including H10 mRNA or doses of 0.005 mpk of a formulation including Luc mRNA and a formulation including H10 mRNA). As shown in Table 20-4, the total flux was higher upon administration of the second dose for each composition and at each dose level. Total flux was higher for the higher dose level.

[2] = system: luciferase (Luc) mRNA expression; test: Expression of Luc induced by sample formulations, whole-body bioluminescence after intravenous administration; type: in vivo; settings: mice, i.v., 0.5 mg/kg; for Total Flux 3 hours / Total Flux 6 hours / Total Flux 24 hours: Table 20-2
Outline: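 Read-out is whole-body bioluminescence at 3, 6 and 24 h after a single intravenous dose of 0.5 mg/kg Luc mRNA in nanoparticle formulations. Groups of n=6 mice; PBS and standard MC3 formulation as references.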

[3] = Particle size and polydispersity index of nanoparticle compositions (Zetasizer Nano ZS); type: physicochemical
Outline: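 Values are size and PDI readings from a Zetasizer Nano ZS. Measurements are taken in 1×PBS; zeta potential, by contrast, uses 15 mM PBS.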

IL-6 = test: Cytokine production induced by sample formulations: IL-6; type: in vivo; settings: mice, i.v., 0.5 mpk, 6 hours; for IL-6: Table 20-4, formula (20-I), in pg/mL (unit assumed)
Outline: as §1

[4] = pKa of nanoparticle compositions; type: physicochemical; settings: Table 20-1
[5] = system: modified luciferase expression; test: Expression of Luc in different organs (liver, lung, spleen, femur) 6 hours after intravenous administration; type: in vivo; settings: Table 20-3, mice, i.v., 0.5 mpk
Experimental: The efficacy of the nanoparticle compositions presented in Tables 1, 1a, 17-1, 19-1, 20-1 and 21-1 was further evaluated by measuring the expression of modified luciferase in the liver, lung, spleen, and femur upon administration of a given composition. Formulations were administered intravenously to mice (n=3) at a dosage of 0.5 mpk and bioluminescence measured after 6 hours. The standard MC3 formulation and a PBS control were also tested.

[6] = Encapsulation efficiency of RNA (QUANT-IT RIBOGREEN RNA assay); type: physicochemical
Outline: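 RiboGreen fluorescence (ex ~480, em ~520 nm) measured after 15 min at 37 °C on samples at ~5 μg/mL in TE, pH 7.5, ± 2% Triton X-100 solution. After blank subtraction, free RNA is given as intact-sample signal divided by disrupted-sample signal.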

hEPO mRNA expression = test: Expression of hEPO in CD-1 mice; type: in vivo; settings: Table 7e; hEPO expression, CD-1 mice, 0.5 mpk
Source text: FIG. 12 is a set of graphs illustrating hEPO expression levels in CD-1 mice dosed with compounds of the disclosure, compared to MC3. PBS is used as control. […] In graphs A-C numbers 1-14 refer to compositions containing the following: 1: Compound 73, 2: Compound 80, 3: Compound 70; 4: Compound 81; 5: Compound 69; 6: Compound 82; 7: Compound 83; 8: Compound 62; 9: Compound 84; 10: Compound 85; 11: Compound 86; 12: Compound 87; 13: MC3; 14: PBS.
FIG. 13 is a graph showing hEPO levels (pg/mL) in CD-1 mice up to ˜25 h after administration of a nanoparticle composition containing compounds of the disclosure, compared to a composition containing MC3. Numbers 1-13 refer to compositions containing the following: 1: Compound 73, 2: Compound 80, 3: Compound 70; 4: Compound 81; 5: Compound 69; 6: Compound 82; 7: Compound 83; 8: Compound 62; 9: Compound 84; 10: Compound 85; 11: Compound 86; 12: Compound 87; 13: MC3. […]

[7] = Table 20-1, * formulated with DOPE
[8] = Table 20-1, rows without footnote mark

Structure (SMILES)	IP-10 (IP-10)	Total flux (p/s) 0.001 mpk Dose 1 [1]	Total flux (p/s) 0.01 mpk Dose 1 [1]	Total Flux 3 hours ([2]; 3 hours)	Total Flux 6 hours [2]	Total Flux 24 hours [2]	IL-6 (IL-6)	Total Flux Liver [5]	Total Flux Lung [5]	Total Flux Spleen [5]	PDI ([3]; Table 1b)	Size (nm) ([3]; Table 1b)	AUC (p/s*h) CD-1 mice 0.5 mpk (hEPO mRNA expression)	EE (%) ([6]; Table 1b)	also measured
CCCCCCCCCCCCN(CCCCCCCCCCCC)CCN(CCCCCCCCCCCC)CC(=O)O [Compound 20-1, N-(2-(Didodecylamino)ethyl)-N-dodecylglycine]	2065.8	3.50E+05 p/s	3.16E+06 p/s	1.44E+06	8.30E+05	4.53E+05	62.4	3.19E+05	3.79E+04	1.70E+05	–	–	–	–	Total flux (p/s) 0.001 mpk Dose 2 [1]: 1.99E+06 p/s; Total flux (p/s) 0.01 mpk Dose 2 [1]: 1.04E+07 p/s; total flux after 24 hours, rank within the named table (in words) [2]: lowest; PDI [3, 7]: 0.078; Size (nm) [3, 7]: 87.8 nm; pKa ([4]; * formulated with DOPE): 4.48; EE (%) [6, 7]: 90.7%
CCCCCCCCCCCCN(CCO)CCN(CCCCCC(=O)OCCCCC)CCCCCC(=O)OCCCCC [Compound 20-4, Dipentyl 6,6′-((2-(dodecyl(2-hydroxyethyl)amino)ethyl)azanediyl)dihexanoate]	270.5	1.04E+06 p/s	9.46E+06 p/s	3.01E+06	1.75E+06	6.82E+08	169.3	2.93E+05	1.11E+04	4.51E+04	–	–	–	–	PDI [3, 8]: 0.160; Size (nm) [3, 8]: 82.1 nm; pKa ([4]; rows without footnote mark): 6.86; Total Flux Femur ([5]; femur): 2.09E+04; EE (%) [6, 8]: 91.3%
CCCCCCCCCN(CCCCCCCCC)CCN(CCO)CCCCCC(=O)OCCCCC [Compound 20-6, Pentyl 6-((2-(dinonylamino)ethyl)(2-hydroxyethyl)amino)hexanoate]	25.3	8.57E+05 p/s	3.41E+06 p/s	3.39E+10	5.44E+06	5.48E+05	0	7.75E+05	2.32E+04	2.35E+05	–	–	–	–	IP-10 induction, rank or comparison with IL-6 (in words) (IP-10): lowest; Total flux (p/s) 0.001 mpk Dose 2 [1]: 9.79E+05 p/s; Total flux (p/s) 0.01 mpk Dose 2 [1]: 6.04E+06 p/s; total flux after 3 hours, rank within the named table (in words) ([2]; 3 hours): highest after 3 hours; total flux after 24 hours, rank within the named table (in words) [2]: lowest; PDI [3, 8]: 0.220; Size (nm) [3, 8]: 82.5 nm; IL-6 induction, rank within the named table (in words) (IL-6): lowest; pKa ([4]; rows without footnote mark): 6.73; EE (%) [6, 8]: 94.7%
CCCCCCCCCN(CCCCCCCCC)CCN(CCCCCCCCC)CC(=O)N1CCC(CN(CCCCCCCCC)CCCC(=O)OCCCCC)C1 (stereo not shown) [Compound 82, Pentyl 4-(((1-(N-(2-(dinonylamino)ethyl)-N-nonylglycyl)pyrrolidin-3-yl)methyl)(nonyl)amino)butanoate]	–	–	–	–	–	–	–	–	–	–	0.24	76.1 nm	1.29E+8 p/s*h	99.23%	–
CCCCCCCCCN(CCCC(=O)OCCCCC)CCC1CCN(C(=O)CN(CCCCCCCCC)CCN(CCCCCCCCC)CCCCCCCCC)CC1 [Compound 83, Pentyl 4-((2-(1-(N-(2-(dinonylamino)ethyl)-N-nonylglycyl)piperidin-4-yl)ethyl)(nonyl)amino)butanoate]	–	–	–	–	–	–	–	–	–	–	0.22	73.2 nm	5.21E+7 p/s*h	99.12%	–
CCCCCCCCCN(CCCC(=O)OCCCCC)CCCC1CCN(C(=O)CCN(CCCCCCCCC)CCN(CCCCCCCCC)CCCCCCCCC)CC1 [Compound 84, Pentyl 4-((3-(1-(3-((2-(dinonylamino)ethyl)(nonyl)amino)propanoyl)piperidin-4-yl)propyl)(nonyl)amino)butanoate]	–	–	–	–	–	–	–	–	–	–	0.19	68.6 nm	5.10E+7 p/s*h	98.48%	–
CCCCCCCCCN(CCCCCCCCC)CCCC1CCN(C(=O)CCN(CCCCCCCCC)CCN(CCCCCCCCC)CCCCCCCCC)CC1 [Compound 85, 3-((2-(Dinonylamino)ethyl)(nonyl)amino)-1-(4-(3-(dinonylamino)propyl)piperidin-1-yl)propan-1-one]	–	–	–	–	–	–	–	–	–	–	0.24	69.9 nm	1.27E+8 p/s*h	99.18%	–
CCCCCCCCCN(CCCOC(=O)CCCCC)CCC(=O)N1CCN(C(=O)CCN(CCCCCCCCC)CCN(CCCCCCCCC)CCCCCCCCC)CC1 [Compound 86, 3-((3-(4-(3-((2-(Dinonylamino)ethyl)(nonyl)amino)propanoyl)piperazin-1-yl)-3-oxopropyl)(nonyl)amino)propyl Hexanoate]	–	–	–	–	–	–	–	–	–	–	0.14	53.6 nm	1.75E+7 p/s*h	97.42%	–
CCCCCCCCCN(CCCOC(=O)CCCCC)CCCC1CCN(C(=O)CCN(CCCCCCCCC)CCN(CCCCCCCCC)CCCCCCCCC)CC1 [Compound 87, 3-((3-(1-(3-((2-(Dinonylamino)ethyl)(nonyl)amino)propanoyl)piperidin-4-yl)propyl)(nonyl)amino)propyl Hexanoate]	–	–	–	–	–	–	–	–	–	–	0.21	80.9 nm	2.86E+7 p/s*h	98.67%	–

— US10195156B2, “Compounds and compositions for intracellular delivery of agents” (ModernaTX, Inc., priority 2015, dated 2019)
